Laboratory results reported in PubChem BioAssay (NCI).
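Compound exposure: 48 hours, 5 concentrations, 96-well plates. TGI denotes the concentration required for complete inhibition of growth.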

What was measured:
Assay in all cases: DTP human tumour cell line panel, 48 h
U251 CNS = tested on: U251 CNS
RXF 393 renal = tested on: RXF 393 renal
HCT-15 colon = tested on: HCT-15 colon
MDA-MB-435 = tested on: MDA-MB-435
A498 renal = tested on: A498 renal
COLO 205 colon = tested on: COLO 205 colon
OVCAR-4 ovarian = tested on: OVCAR-4 ovarian
SF-539 CNS = tested on: SF-539 CNS
HOP-92 NSCLC = tested on: HOP-92 NSCLC
MALME-3M melanoma = tested on: MALME-3M melanoma

## COc1ccc(CCNC(=O)CCCCCO)cc1OC
U251 CNS
  TGI: > 100 µM
RXF 393 renal
  TGI: > 100 µM
HCT-15 colon
  TGI: > 100 µM
MDA-MB-435
  TGI: > 100 µM
A498 renal
  TGI: > 100 µM
COLO 205 colon
  TGI: > 100 µM
OVCAR-4 ovarian
  TGI: > 100 µM
SF-539 CNS
  TGI: > 100 µM
HOP-92 NSCLC
  TGI: > 100 µM

## CC1(C)O[C@H]2OC(CO)C(OS(C)(=O)=O)[C@H]2O1 (stereo partly drawn)
U251 CNS
  TGI: > 100 µM
HCT-15 colon
  TGI: > 100 µM
MDA-MB-435
  TGI: > 100 µM
A498 renal
  TGI: > 100 µM
COLO 205 colon
  TGI: > 100 µM
SF-539 CNS
  TGI: > 100 µM
MALME-3M melanoma
  TGI: > 100 µM
HOP-92 NSCLC
  TGI: > 100 µM

## O=C1C2=C(CCCCC2)C2CCCCC12O (stereo not drawn)
U251 CNS
  TGI: > 100 µM
RXF 393 renal
  TGI: > 100 µM
COLO 205 colon
  TGI: > 100 µM
SF-539 CNS
  TGI: > 100 µM
MALME-3M melanoma
  TGI: > 100 µM
HOP-92 NSCLC
  TGI: > 100 µM

## COc1ccc(N=N/C(=N/NC(=O)c2cc(Cl)ccc2C(=O)c2ccccc2)c2ccc(N(CCC#N)CCC#N)cc2C)cc1
U251 CNS
  TGI: > 100 µM
RXF 393 renal
  TGI: 30.4 µM
HCT-15 colon
  TGI: 65.7 µM
MDA-MB-435
  TGI: > 100 µM
COLO 205 colon
  TGI: 42.9 µM
OVCAR-4 ovarian
  TGI: > 100 µM
MALME-3M melanoma
  TGI: 94.7 µM

## COc1ccc(-c2nnc(CCCCCCCCc3nnc(-c4ccc(OC)cc4)n3N)n2N)cc1
U251 CNS
  TGI: > 100 µM
HCT-15 colon
  TGI: > 100 µM
MDA-MB-435
  TGI: > 100 µM
A498 renal
  TGI: > 100 µM
COLO 205 colon
  TGI: > 100 µM
OVCAR-4 ovarian
  TGI: > 100 µM
SF-539 CNS
  TGI: > 100 µM
MALME-3M melanoma
  TGI: > 100 µM
HOP-92 NSCLC
  TGI: > 69.1 µM

## Cc1ccc(S(=O)(=O)C2c3nc4ccccc4cc3-c3nc4ccccc4nc32)cc1 (stereo not drawn)
U251 CNS
  TGI: > 100 µM
HCT-15 colon
  TGI: > 100 µM
A498 renal
  TGI: > 100 µM
COLO 205 colon
  TGI: > 100 µM
OVCAR-4 ovarian
  TGI: > 100 µM
SF-539 CNS
  TGI: > 100 µM
MALME-3M melanoma
  TGI: > 100 µM
HOP-92 NSCLC
  TGI: > 100 µM

## CCC/C(Cl)=N\OC(=O)Nc1ccc(F)c([N+](=O)[O-])c1
U251 CNS
  TGI: 37.3 µM
HCT-15 colon
  TGI: 34.8 µM
MDA-MB-435
  TGI: 30.4 µM
A498 renal
  TGI: 48.4 µM
COLO 205 colon
  TGI: 12 µM
OVCAR-4 ovarian
  TGI: 28.9 µM
SF-539 CNS
  TGI: 42.9 µM
MALME-3M melanoma
  TGI: 22.8 µM
HOP-92 NSCLC
  TGI: 31.7 µM

## O=S(=O)(O)c1cc(Nc2ccnc3ccccc23)c2c(S(=O)(=O)O)cc(S(=O)(=O)O)cc2c1
U251 CNS
  TGI: > 100 µM
RXF 393 renal
  TGI: > 100 µM
HCT-15 colon
  TGI: > 100 µM
MDA-MB-435
  TGI: > 100 µM
A498 renal
  TGI: > 100 µM
COLO 205 colon
  TGI: > 100 µM
OVCAR-4 ovarian
  TGI: > 100 µM
SF-539 CNS
  TGI: > 100 µM
MALME-3M melanoma
  TGI: > 100 µM

## Cc1nc2c(Cl)cc(Cl)cc2c(Cl)c1CCCl
U251 CNS
  TGI: > 100 µM
RXF 393 renal
  TGI: 79.3 µM
HCT-15 colon
  TGI: > 100 µM
MDA-MB-435
  TGI: > 100 µM
A498 renal
  TGI: > 100 µM
COLO 205 colon
  TGI: > 100 µM
SF-539 CNS
  TGI: > 100 µM
MALME-3M melanoma
  TGI: > 100 µM

## N#Cc1ccc(Nc2cnc3ccc(N)cc3n2)cc1
U251 CNS
  TGI: > 100 µM
RXF 393 renal
  TGI: > 100 µM
HCT-15 colon
  TGI: > 100 µM
COLO 205 colon
  TGI: > 100 µM
OVCAR-4 ovarian
  TGI: > 100 µM
SF-539 CNS
  TGI: > 100 µM
MALME-3M melanoma
  TGI: > 100 µM
HOP-92 NSCLC
  TGI: > 100 µM

## CCCCCCCC(=O)OCC(C[As](=O)(O)O)OC(=O)CCCCCCC (stereo not drawn)
U251 CNS
  TGI: 28.2 µM
RXF 393 renal
  TGI: 18.2 µM
HCT-15 colon
  TGI: 28.5 µM
A498 renal
  TGI: 33.2 µM
COLO 205 colon
  TGI: 27.6 µM
OVCAR-4 ovarian
  TGI: 34 µM
SF-539 CNS
  TGI: 27.1 µM
MALME-3M melanoma
  TGI: 28.5 µM
HOP-92 NSCLC
  TGI: 25.4 µM

## CCCCNC(=S)c1ccc(OC(=O)Nc2ccc(Cl)cc2)cc1
U251 CNS
  TGI: > 100 µM
HCT-15 colon
  TGI: > 100 µM
MDA-MB-435
  TGI: > 100 µM
A498 renal
  TGI: > 100 µM
COLO 205 colon
  TGI: 57.5 µM
OVCAR-4 ovarian
  TGI: > 100 µM
SF-539 CNS
  TGI: > 100 µM
MALME-3M melanoma
  TGI: > 100 µM
